# Measurements from US20110111976A1, “MICRORNA BIOMARKERS OF TISSUE INJURY” (priority 2008, published 2011).
# Values joined by “and” are separate entries in the source; they are usually repeats but may differ in a detail not shown here. Identical values can stand only once.
# Assays:
# Sprague-Dawley rats [1] = assay: Pooled sample study: miR-122 in blood plasma of toxicant-treated rats by qPCR; type: in vivo; conditions: pooled rat plasma (5 samples), cerivastatin 1.0 mg/kg/day oral Day 14, CBrCl3 0.1 ml/kg oral Days 2 & 4, TMPD 6 mg/kg bid s.c. Day 3; for miR-122 Copies / miR-122 Ct Mean: 250 ng total RNA input
# Protocol: (§1) To explore the feasibility of detecting miRNA tissue injury biomarkers in plasma, a pilot study was performed in which pooled blood plasma samples from rat toxicology studies were analyzed using a qPCR-based assay (Raymond et at, 2005, RNA 11:1737; WO 2006/081282). The miRNAs miR-122 and miR-133 were chosen for quantification because they are extremely abundant and specific to liver and muscle, respectively (FIG. 1). Stored plasma samples from rats that had previously been treated with a liver damaging agent trichlorobromomethane (CBrCl3) or with one of two muscle damaging agents 2,3,5,6-tetramethyl-p phenylenediamine (TMPD) or cerivastatin) were assayed form miRNA levels using qPCR.
# (§2) Animals Male and female Sprague-Dawley rats were obtained from Charles River Laboratories, Inc. (Raleigh, N.C.). The rats were approximately seven to eight weeks of age and weighed from 125 to 325 grams at the start of the study. The animals were acclimated for approximately one week and randomized into treatment and control groups. During the toxicity studies targeting liver, the animals were maintained on a caloric-restricted diet, and fasted overnight prior to necropsy. Doses were different for each model compound tested and were calculated based on animal body weight. For the compounds, routes of administration, dose groups, and time points, see the below compound section.
# (§3) Skeletal Muscle Toxicant • 2,3,5,6-tetramethyl-p phenylenediamine (TMPD) • Doses: 6 mg/kg bid • Dosing: 0.9% NaCl by subcutaneous injection • Animals: Sprague Dawley Male Rats • Time Points Day 3, TMPD Plasma (Day 3) and Controls (5 samples, 100 ul each pooled=500 ul total).
# (§4) Liver Toxicant • Trichlorbromomethane (CCl3Br) • Doses: 0.1 ml/kg • Dosing: 100% liquid paraffin by oral gavage • Animals: Sprague Dawley Male Rats • Time Point: Day 2, 4 CCl3Br Plasma (Days 2 & 4) and Controls (5 samples, 100 ul each pooled=500 ul total)
# (§5) Liver and Muscle Toxicant • Cerivastatin • Doses: 1.0 mg/kg/day • Dosing: 0.5% methylcellulose by oral gavage • Animals: Sprague Dawley Female Rats • Time Point Day 14 Cerivastatin Plasma (Day 14) and Controls (5 samples, 100 ul each pooled=500 μl total)
# (§6) Plasma Samples All plasma samples were collected in EDTA tubes at final necropsy from the vena cava. Samples were inverted several times, and centrifuged for 20 minutes at 2,900 RPM at 4° C. Plasma samples were removed and stored at −70° C. Pooled blood plasma samples from rat toxicology studies were analyzed using a qPCR-based assay (Raymond et al, 2005, RNA 11:1737; WO 2006/081282). Control slope and intercept values for miR-122 and miR-133 were calculated from a concentration series of each microRNA added to total yeast RNA and then analyzed using the qPCR assay for each miRNA. The slope and intercept values from the standard curve were used to calculate the amount of each respective miRNA in each sample expressed as the number of miRNA copies per 20 ng of total RNA in each sample. Cycle threshold values (Ct) for each sample were converted to miRNA copy numbers by comparison to standard curves generated using single stranded mature miRNAs and are expressed as copies/20 pg input RNA (approximately equivalent to copies/cell).
# Sprague-Dawley rats [2] = assay: Pooled sample study: miR-133 in blood plasma of toxicant-treated rats by qPCR; type: in vivo; conditions: pooled rat plasma (5 samples), cerivastatin 1.0 mg/kg/day oral Day 14, CBrCl3 0.1 ml/kg oral Days 2 & 4, TMPD 6 mg/kg bid s.c. Day 3; for miR-133 Copies / miR-133 Ct Mean: 250 ng total RNA input
# Protocol: as §1, §2, §3, §4, §5, §6
# Sprague-Dawley rats [3] = assay: Individual sample study: miR-122 in blood plasma of toxicant-treated rats by qPCR; type: in vivo, rat; conditions: individual male rats
# Protocol: (§7) To follow up on the initial results shown in Example 2, blood samples from 44 individual rats that had been treated with varying doses of CBrCl3, CCl4 (another liver toxicant), or TMPD were evaluated using qPCR of miR-122 and miR-133. In addition, data from histopathology and a panel of standard biomarkers (ALT, AST, CK, skTnI, etc.) were also available for these same individual rats and were used to compare the results from microRNA assays with the standard histopathology and protein biomarkers.
# as §2
# (§8) Skeletal Muscle Toxicant • 2,3,5,6-tetramethyl-p phenylenediamine (TMPD) • Doses: 2, 4 mg/kg bid • Dosing: 0.9% NaCl by subcutaneous injection • Animals: Sprague Dawley Male Rats • Time Points: TMPD Plasma (Day 2) and Controls (5 samples per group, […] pooled=500 μl total).
# (§9) Liver Toxicant • Trichlorobromomethane (CCl3Br) • Doses: 0.03, 0.1 ml/kg • Dosing: 100% liquid paraffin by oral gavage • Animals: Sprague Dawley Male Rats • Time Point: CCl3Br Plasma (Days 2 & 4) and Controls (4 controls, 3 samples per group, 100 μl each) • Carbon Tetrachloride (CCl4) • Doses: 0.03, 0.1, 0.3 ml/kg • Dosing: 100% liquid paraffin by oral gavage • Animals: Sprague Dawley Male Rats • Time Point: CCl4 Plasma (Days 2) and Controls (4 samples per group, 100 μl each)
# as §6, with “are expressed in Table 4 as copies/20” for “are expressed as copies/20”
# Sprague-Dawley rats [4] = assay: Individual sample study: miR-133 in blood plasma of toxicant-treated rats by qPCR; type: in vivo, rat; conditions: individual male rats
# Protocol: as §7, §2, §8, §9
# as §6, with “are expressed in Table 4 as copies/20” for “are expressed as copies/20”
# Sprague-Dawley rats [5] = assay: Clinical chemistry (AST, ALT, CK) in blood plasma of toxicant-treated rats; type: in vivo, rat; conditions: individual male rats
# Protocol: as §7, §2, §8, §9
# Sprague-Dawley rats [6] = assay: Liver histopathology scores of toxicant-treated rats; type: in vivo, rat; design: key to Liver Histopathology Scores: Vacuolation / Liver Histopathology Scores: Necrosis / Liver Histopathology Scores: Degeneration / Liver Histopathology Scores: Inflammation / Liver Histopathology Scores: Mitotic Index: 1 = very slight; 2 = slight or small; 3 = moderate; 4 = marked; 5 = severe tissue injury
# Protocol: as §7, §2, §9
# [7] = CBrCl3 0.03 mL/kg oral gavage, Day 2, plasma
# [8] = CBrCl3 0.03 mL/kg oral gavage, Day 4, plasma
# [9] = CBrCl3 0.1 mL/kg oral gavage, Day 4, plasma
# [10] = CBrCl3 0.03 mL/kg oral gavage, Day 2, individual male rats
# [11] = CBrCl3 0.03 mL/kg oral gavage, Day 4, individual male rats
# [12] = CBrCl3 0.1 mL/kg oral gavage, Day 4, individual male rats
# [13] = CCl4 0.03 ml/kg oral gavage, Day 2, plasma
# [14] = CCl4 0.1 mL/kg oral gavage, Day 2, plasma
# [15] = CCl4 0.3 mL/kg oral gavage, Day 2, plasma
# [16] = CCl4 0.03 ml/kg oral gavage, Day 2, individual male rats
# [17] = CCl4 0.1 mL/kg oral gavage, Day 2, individual male rats
# [18] = CCl4 0.3 mL/kg oral gavage, Day 2, individual male rats
smiles,measurement,setting,value
"ClC(Cl)(Cl)Br [CBrCl3, trichlorobromomethane]",miR-122 Copies,Sprague-Dawley rats [1],8.8E+08
same,miR-122 Ct Mean,Sprague-Dawley rats [1],12.6961
same,miR-122 Copies/20 pg,Sprague-Dawley rats [1],70674.9 Copies/20 pg
same,miR-133 Copies,Sprague-Dawley rats [2],85617.9
same,miR-133 Ct Mean,Sprague-Dawley rats [2],29.6296
same,miR-133 Copies/20 pg,Sprague-Dawley rats [2],6.8 Copies/20 pg
same,miR-122,Sprague-Dawley rats [3]; [7],860.8 copies/20 pg input RNA and 45.1 copies/20 pg input RNA and 47.3 copies/20 pg input RNA
same,miR-122,Sprague-Dawley rats [3]; [8],90.2 copies/20 pg input RNA and 56.2 copies/20 pg input RNA and 20.5 copies/20 pg input RNA
same,miR-122,Sprague-Dawley rats [3]; [9],4049.2 copies/20 pg input RNA and 335.5 copies/20 pg input RNA and 304.0 copies/20 pg input RNA
same,miR-133,Sprague-Dawley rats [4]; [7],0.7 copies/20 pg input RNA and 0.2 copies/20 pg input RNA and 0.4 copies/20 pg input RNA
same,miR-133,Sprague-Dawley rats [4]; [8],1.2 copies/20 pg input RNA and 2.0 copies/20 pg input RNA and 0.3 copies/20 pg input RNA
same,miR-133,Sprague-Dawley rats [4]; [9],0.8 copies/20 pg input RNA and 0.4 copies/20 pg input RNA (2×)
same,ALT,Sprague-Dawley rats [5]; [7],142 Unit and 36 Unit (2×)
same,AST,Sprague-Dawley rats [5]; [7],366 Unit and 83 Unit and 93 Unit
same,ALT,Sprague-Dawley rats [5]; [8],34 Unit and 43 Unit and 32 Unit
same,AST,Sprague-Dawley rats [5]; [8],138 Unit and 118 Unit and 108 Unit
same,ALT,Sprague-Dawley rats [5]; [9],1388 Unit and 191 Unit and 223 Unit
same,AST,Sprague-Dawley rats [5]; [9],1543 Unit and 370 Unit and 519 Unit
same,Liver Histopathology Scores: Degeneration,Sprague-Dawley rats [6]; [10],2 and 0 and 1
same,Liver Histopathology Scores: Inflammation,Sprague-Dawley rats [6]; [10],1 (2×) and 0
same,Liver Histopathology Scores: Mitotic Index,Sprague-Dawley rats [6]; [10],0
same,Liver Histopathology Scores: Necrosis,Sprague-Dawley rats [6]; [10],1 and 0 (2×)
same,Liver Histopathology Scores: Degeneration,Sprague-Dawley rats [6]; [11],0 and 1 (2×)
same,Liver Histopathology Scores: Inflammation,Sprague-Dawley rats [6]; [11],0
same,Liver Histopathology Scores: Mitotic Index,Sprague-Dawley rats [6]; [11],0
same,Liver Histopathology Scores: Necrosis,Sprague-Dawley rats [6]; [11],0
same,Liver Histopathology Scores: Degeneration,Sprague-Dawley rats [6]; [12],2 and 1 (2×)
same,Liver Histopathology Scores: Inflammation,Sprague-Dawley rats [6]; [12],2
same,Liver Histopathology Scores: Mitotic Index,Sprague-Dawley rats [6]; [12],1 (2×) and 2
same,Liver Histopathology Scores: Necrosis,Sprague-Dawley rats [6]; [12],3 and 1 (2×)
"ClC(Cl)(Cl)Cl [CCl4, Carbon Tetrachloride]",miR-122,Sprague-Dawley rats [3]; [13],2.4 copies/20 pg input RNA and 5.5 copies/20 pg input RNA and 8.7 copies/20 pg input RNA and 10.0 copies/20 pg input RNA
same,miR-122,Sprague-Dawley rats [3]; [14],7.9 copies/20 pg input RNA and 107.4 copies/20 pg input RNA and 14.3 copies/20 pg input RNA and 119.4 copies/20 pg input RNA
same,miR-122,Sprague-Dawley rats [3]; [15],1563.6 copies/20 pg input RNA and 194.3 copies/20 pg input RNA and 191.4 copies/20 pg input RNA and 164.6 copies/20 pg input RNA
same,miR-133,Sprague-Dawley rats [4]; [13],0.3 copies/20 pg input RNA (2×) and 0.5 copies/20 pg input RNA and 1.0 copies/20 pg input RNA
same,miR-133,Sprague-Dawley rats [4]; [14],0.3 copies/20 pg input RNA (2×) and 0.4 copies/20 pg input RNA (2×)
same,miR-133,Sprague-Dawley rats [4]; [15],1.4 copies/20 pg input RNA and 0.4 copies/20 pg input RNA and 0.3 copies/20 pg input RNA and 0.1 copies/20 pg input RNA
same,ALT,Sprague-Dawley rats [5]; [13],25 Unit (3×) and 20 Unit
same,AST,Sprague-Dawley rats [5]; [13],92 Unit and 88 Unit and 76 Unit and 84 Unit
same,ALT,Sprague-Dawley rats [5]; [14],25 Unit and 40 Unit (2×) and 41 Unit
same,AST,Sprague-Dawley rats [5]; [14],96 Unit and 116 Unit and 102 Unit and 126 Unit
same,ALT,Sprague-Dawley rats [5]; [15],87 Unit and 77 Unit and 62 Unit and 56 Unit
same,AST,Sprague-Dawley rats [5]; [15],345 Unit and 216 Unit and 157 Unit and 225 Unit
same,Liver Histopathology Scores: Degeneration,Sprague-Dawley rats [6]; [16],0
same,Liver Histopathology Scores: Inflammation,Sprague-Dawley rats [6]; [16],0
same,Liver Histopathology Scores: Necrosis,Sprague-Dawley rats [6]; [16],0
same,Liver Histopathology Scores: Vacuolation,Sprague-Dawley rats [6]; [16],0
same,Liver Histopathology Scores: Degeneration,Sprague-Dawley rats [6]; [17],0 (2×) and 1 (2×)
same,Liver Histopathology Scores: Inflammation,Sprague-Dawley rats [6]; [17],0 (2×) and 2 and 1
same,Liver Histopathology Scores: Necrosis,Sprague-Dawley rats [6]; [17],0 (2×) and 1 (2×)
same,Liver Histopathology Scores: Vacuolation,Sprague-Dawley rats [6]; [17],0 and 1 (3×)
same,Liver Histopathology Scores: Degeneration,Sprague-Dawley rats [6]; [18],2
same,Liver Histopathology Scores: Inflammation,Sprague-Dawley rats [6]; [18],2 (3×) and 1
same,Liver Histopathology Scores: Necrosis,Sprague-Dawley rats [6]; [18],1
same,Liver Histopathology Scores: Vacuolation,Sprague-Dawley rats [6]; [18],0
COCc1c(C(C)C)nc(C(C)C)c(/C=C/[C@@H](O)C[C@@H](O)CC(=O)O)c1-c1ccc(F)cc1 [Cerivastatin],miR-122 Copies,Sprague-Dawley rats [1],353217
same,miR-122 Ct Mean,Sprague-Dawley rats [1],24.2231
same,miR-122 Copies/20 pg,Sprague-Dawley rats [1],28.3 Copies/20 pg
same,miR-133 Copies,Sprague-Dawley rats [2],7279643
same,miR-133 Ct Mean,Sprague-Dawley rats [2],23.1065
same,miR-133 Copies/20 pg,Sprague-Dawley rats [2],582.4 Copies/20 pg
